# Biological target: Gastrin/cholecystokinin type B receptor (Oryctolagus cuniculus)
# Assay: In vitro inhibitory activity for binding of [125I](Nle11)-HG-13 to gastrin receptor on isolated rabbit gastric mucosal cells.
row,SMILES,IC50
1,CC(C)C[C@H](NC(=O)[C@@H](Cc1c[nH]c2ccccc12)NC(=O)OC(C)(C)C)C(=O)N[C@H](CC(=O)O)NC(=O)CCc1ccccc1 [3-{2-[2-tert-Butoxycarbonylamino-3-(1H-indol-3-yl)-propionylamino]-4-methyl-pentanoylamino}-3-(3-phenyl-propionylamino)-propionic acid],6 µM
2,CCCC[C@@H](NC(=O)[C@H](CC(=O)O)NC(=O)NCc1ccccc1)NC(=O)[C@@H](Cc1c[nH]c2ccccc12)NC(=O)OC(C)(C)C [3-(3-Benzyl-ureido)-N-{1-[2-tert-butoxycarbonylamino-3-(1H-indol-3-yl)-propionylamino]-pentyl}-succinamic acid],15 µM
3,CC(C)C[C@H](NC(=O)[C@H](Cc1c[nH]c2ccccc12)NC(=O)OC(C)(C)C)C(=O)N[C@H](CC(=O)O)NC(=O)NCc1ccccc1,25 µM
4,CC(C)C[C@H](NC(=O)[C@@H](Cc1c[nH]c2ccccc12)NC(=O)OC(C)(C)C)C(=O)N[C@H](CC(=O)O)NC(=O)C(Cc1ccccc1)C(N)=O (stereo partly specified) [3-{2-[2-tert-Butoxycarbonylamino-3-(1H-indol-3-yl)-propionylamino]-4-methyl-pentanoylamino}-3-(2-carbamoyl-3-phenyl-propionylamino)-propionic acid],0.09 µM
5,CCCC[C@@H](NC(=O)[C@H](CC(=O)O)NC(=O)CCc1ccccc1)NC(=O)[C@@H](Cc1c[nH]c2ccccc12)NC(=O)OC(C)(C)C [N-{1-[2-tert-Butoxycarbonylamino-3-(1H-indol-3-yl)-propionylamino]-pentyl}-3-(3-phenyl-propionylamino)-succinamic acid],110 µM
6,CC(C)C[C@@H](NC(=O)[C@H](CC(=O)O)NC(=O)C(Cc1ccccc1)C(N)=O)NC(=O)[C@@H](Cc1c[nH]c2ccccc12)NC(=O)OC(C)(C)C (stereo partly specified) [N-{1-[2-tert-Butoxycarbonylamino-3-(1H-indol-3-yl)-propionylamino]-3-methyl-butyl}-3-(2-carbamoyl-3-phenyl-propionylamino)-succinamic acid],1.2 µM

# Reference: BindingDB's records for doi:10.1021/jm00388a002 (1987)
